{"source": "ChEMBL document CHEMBL4837230", "about": "“Thiophene-2-carboxamide derivatives of anthraquinone: A new potent antitumor chemotype” (Eur J Med Chem, 2021)", "key": {"[1]": {"assay": "Resistance index, ratio of IC50 for cytotoxicity against p53 knock out human HCT-116 cells to IC50 for cytotoxicity against human HCT-116 cells", "assay_type": "functional"}, "K562 [2]": {"system": "K562", "assay": "Induction of cell cycle arrest in human K562 cells assessed as increase in accumulation at G0/G1 phase at 2.5 uM after 2 hrs by flow cytometric analysis (reference value: 46.5%)", "assay_type": "functional"}, "K562 [3]": {"system": "K562", "assay": "Induction of cell cycle arrest in human K562 cells assessed as increase in accumulation at sub-G1 phase at 2.5 uM after 48 hrs by propidium iodide staining based flow cytometric analysis (reference value: 8.4%)", "assay_type": "functional"}, "K562 [4]": {"system": "K562", "assay": "Induction of apoptosis in human K562 cells assessed as early apoptotic cells after 3 hrs by Annexin V-APC/PI double staining based flow cytometric analysis (reference value: 0.1%)", "assay_type": "functional"}, "U-937": {"system": "U-937", "assay": "Cytotoxicity in human U-937 cells assessed as reduction in cell viability incubated for 72 hrs by MTT assay", "assay_type": "functional, cell-based", "details": "U-937, 72 h"}, "K562 [5]": {"system": "K562", "assay": "Induction of apoptosis in human K562 cells assessed as early apoptotic cells after 24 hrs by Annexin V-APC/PI double staining based flow cytometric analysis (reference value: 0.1%)", "assay_type": "functional"}, "K562 [6]": {"system": "K562", "assay": "Induction of cell cycle arrest in human K562 cells assessed as increase in accumulation at G2/M phase at 2.5 uM after 6 hrs by flow cytometric analysis (reference value: 26.8%)", "assay_type": "functional"}, "K562 [7]": {"system": "K562", "assay": "Cytotoxicity in human K562 cells assessed as reduction in cell viability at 2.5 uM incubated for 72 hrs by propidium iodide staining based flow cytometric analysis", "assay_type": "functional"}, "K562 [8]": {"system": "K562", "assay": "Induction of cell cycle arrest in human K562 cells assessed as increase in accumulation at G2/M phase at 2.5 uM after 4 hrs by flow cytometric analysis (reference value: 19.7%)", "assay_type": "functional"}, "[9]": {"assay": "Cytotoxicity in human DND41 cells assessed as reduction in cell viability incubated for 72 hrs by MTT assay", "assay_type": "functional, cell-based", "details": "DND41, 72 h"}, "K562 [10]": {"system": "K562", "assay": "Induction of apoptosis in human K562 cells assessed as late apoptotic cells after 24 hrs by Annexin V-APC/PI double staining based flow cytometric analysis (reference value: 2.6%)", "assay_type": "functional"}, "K562 [11]": {"system": "K562", "assay": "Induction of cell cycle arrest in human K562 cells assessed as increase in accumulation at sub-G1 phase at 2.5 uM after 24 hrs by propidium iodide staining based flow cytometric analysis (reference value: 8.4%)", "assay_type": "functional"}, "[12]": {"assay": "Drug localization in nuclei of mouse NIH3T3 cells at 1 uM incubated for 5 to 60 mins by Hoechst 33258 staining based laser confocal microscopy", "assay_type": "ADME, cell-based", "details": "nih3t3, 1 µM, time 5-60 min"}, "K562 [13]": {"system": "K562", "assay": "Induction of apoptosis in human K562 cells assessed as late apoptotic cells after 3 hrs by Annexin V-APC/PI double staining based flow cytometric analysis (reference value: 2.6%)", "assay_type": "functional"}, "K562 [14]": {"system": "K562", "assay": "Induction of cell cycle arrest in human K562 cells assessed as increase in accumulation at G0/G1 phase at 2.5 uM after 6 hrs by flow cytometric analysis (reference value: 14.1%)", "assay_type": "functional"}, "K562 [15]": {"system": "K562", "assay": "Induction of cell cycle arrest in human K562 cells assessed as increase in accumulation at S phase at 2.5 uM after 4 hrs by flow cytometric analysis (reference value: 47.1%)", "assay_type": "functional"}, "K562 [16]": {"system": "K562", "assay": "Cytotoxicity in human K562 cells assessed as reduction in cell viability at 2.5 uM incubated with compound for 120 mins followed by cell washing and measured after 72 hrs by propidium iodide staining based flow cytometric analysis", "assay_type": "functional", "details": "2 h"}, "K562 [17]": {"system": "K562", "assay": "Induction of cell cycle arrest in human K562 cells assessed as increase in accumulation at sub-G1 phase at 5 uM after 24 hrs by propidium iodide staining based flow cytometric analysis (reference value: 8.4%)", "assay_type": "functional"}, "K562 [18]": {"system": "K562", "assay": "Induction of cell cycle arrest in human K562 cells assessed as increase in accumulation at sub-G1 phase at 2.5 uM by flow cytometric analysis (reference value: 16.1%)", "assay_type": "functional"}, "K562 [19]": {"system": "K562", "assay": "Induction of apoptosis in human K562 cells assessed as viable cells after 24 hrs by Annexin V-APC/PI double staining based flow cytometric analysis (reference value: 91%)", "assay_type": "functional"}, "CAPAN-1": {"system": "CAPAN-1", "assay": "Cytotoxicity in human CAPAN-1 cells assessed as reduction in cell viability incubated for 72 hrs by MTT assay", "assay_type": "functional, cell-based", "details": "CAPAN-1, 72 h"}, "HeLa": {"system": "HeLa", "assay": "Cytotoxicity in human HeLa cells assessed as reduction in cell viability incubated for 72 hrs by MTT assay", "assay_type": "functional, cell-based"}, "K562 [20]": {"system": "K562", "assay": "Induction of apoptosis in human K562 cells assessed as activation of PARP cleavage at 2.5 uM measured after 6 hrs by Western blot analysis", "assay_type": "functional, cell-based"}, "[21]": {"assay": "Drug localization in lysosome of mouse NIH3T3 cells at 1 uM incubated for 60 mins by lyso-tracker red based confocal microscopic method", "assay_type": "ADME, cell-based", "details": "nih3t3, 1 h"}, "[22]": {"assay": "Cytotoxicity in human K562/4 cells assessed as reduction in cell viability incubated for 72 hrs by MTT assay", "assay_type": "functional, cell-based", "details": "K562/4, 72 h"}, "K562 [23]": {"system": "K562", "assay": "Induction of cell cycle arrest in human K562 cells assessed as increase in accumulation at S phase at 2.5 uM after 6 hrs by flow cytometric analysis (reference value: 37%)", "assay_type": "functional"}, "K562 [24]": {"system": "K562", "assay": "Cytotoxicity in human K562 cells assessed as reduction in cell viability at 2.5 uM incubated with compound for 60 mins followed by cell washing and measured after72 hrs by propidium iodide staining based flow cytometric analysis", "assay_type": "functional", "details": "1 h"}, "DNA": {"system": "DNA", "assay": "Binding affinity to pBR322 DNA (unknown origin) at 20 uM after 30 mins by electrophoretic mobility shift assay", "assay_type": "nucleic-acid assay"}, "K562 [25]": {"system": "K562", "assay": "Cytotoxicity in human K562 cells assessed as reduction in cell viability at 2.5 uM incubated with compound for 30 mins followed by cell washing and measured after 72 hrs by propidium iodide staining based flow cytometric analysis", "assay_type": "functional", "details": "0.5 h"}, "K562 [26]": {"system": "K562", "assay": "Induction of cell cycle arrest in human K562 cells assessed as increase in accumulation at S phase at 2.5 uM after 2 hrs by flow cytometric analysis (reference value: 23.1%)", "assay_type": "functional"}, "NCI-H460": {"system": "NCI-H460", "assay": "Cytotoxicity in human NCI-H460 cells assessed as reduction in cell viability incubated for 72 hrs by MTT assay", "assay_type": "functional, cell-based", "details": "NCI-H460, 72 h"}, "[27]": {"assay": "Drug localization in mitochondria of mouse NIH3T3 cells at 1 uM measured after 5 mins by MitoTracker red based confocal microscopic method", "assay_type": "ADME", "details": "nih3t3, 5 min"}, "HL-60": {"system": "HL-60", "assay": "Cytotoxicity in human HL-60 cells assessed as reduction in cell viability incubated for 72 hrs by MTT assay", "assay_type": "functional, cell-based", "details": "HL-60, 72 h"}, "K562 [28]": {"system": "K562", "assay": "Induction of cell cycle arrest in human K562 cells assessed as increase in accumulation at G2/M phase at 2.5 uM after 2 hrs by flow cytometric analysis (reference value: 15.2%)", "assay_type": "functional"}, "K562 [29]": {"system": "K562", "assay": "Induction of apoptosis in human K562 cells assessed as necrotic cells after 24 hrs by Annexin V-APC/PI double staining based flow cytometric analysis (reference value: 6.3%)", "assay_type": "functional"}, "HCT-116 [30]": {"system": "HCT-116", "assay": "Cytotoxicity in human HCT-116 cells assessed as reduction in cell viability incubated for 72 hrs by MTT assay", "assay_type": "functional, cell-based", "details": "HCT-116, 72 h"}, "[31]": {"assay": "Drug localization in cytoplasm of mouse NIH3T3 cells at 1 uM incubated for 5 to 60 mins by laser confocal microscopy", "assay_type": "ADME, cell-based", "details": "nih3t3, 1 µM, time 5-60 min"}, "HCT-116 [32]": {"system": "HCT-116", "assay": "Cytotoxicity against p53 knock out human HCT-116 cells assessed as reduction in cell viability incubated for 72 hrs by MTT assay", "assay_type": "functional, cell-based", "details": "HCT-116, 72 h"}}, "note": "Calls of active or inactive are those of the source. The rule behind the calls is not given here."}
{"smiles": "N[C@H]1CCN(C(=O)c2cc3c(O)c4c(c(O)c3s2)C(=O)c2ccccc2C4=O)C1", "values": [{"measurement": "Ratio", "setting": "[1]", "result": 1}, {"measurement": "Activity", "setting": "K562 [2]", "result": 40.4, "unit": "%"}, {"measurement": "Activity", "setting": "K562 [3]", "result": 84.5, "unit": "%"}, {"measurement": "Activity", "setting": "K562 [4]", "result": 0.6, "unit": "%"}, {"measurement": "IC50", "setting": "U-937", "result": 0.2, "unit": "µM"}, {"measurement": "Activity", "setting": "K562 [5]", "result": 0.1, "unit": "%"}, {"measurement": "Activity", "setting": "K562 [6]", "result": 13.9, "unit": "%"}, {"measurement": "Activity", "setting": "K562 [7]", "result": 94.8, "unit": "%"}, {"measurement": "Activity", "setting": "K562 [8]", "result": 17.3, "unit": "%"}, {"measurement": "IC50", "setting": "[9]", "result": 0.4, "unit": "µM"}, {"measurement": "Activity", "setting": "K562 [10]", "result": 49.3, "unit": "%"}, {"measurement": "Activity", "setting": "K562 [11]", "result": 76.7, "unit": "%"}, {"measurement": "Drug uptake", "setting": "[12]", "result": "Not Active"}, {"measurement": "Activity", "setting": "K562 [13]", "result": 13.2, "unit": "%"}, {"measurement": "Activity", "setting": "K562 [14]", "result": 31.7, "unit": "%"}, {"measurement": "Activity", "setting": "K562 [15]", "result": 40.1, "unit": "%"}, {"measurement": "Activity", "setting": "K562 [16]", "result": 76.5, "unit": "%"}, {"measurement": "Activity", "setting": "K562 [17]", "result": 78.4, "unit": "%"}, {"measurement": "Activity", "setting": "K562 [18]", "result": 14.9, "unit": "%"}, {"measurement": "Activity", "setting": "K562 [19]", "result": 1.8, "unit": "%"}, {"measurement": "IC50", "setting": "CAPAN-1", "result": 0.7, "unit": "µM"}, {"measurement": "IC50", "setting": "HeLa", "result": 0.4, "unit": "µM"}, {"measurement": "Activity", "setting": "K562 [20]", "result": "Active"}, {"measurement": "Drug uptake", "setting": "[21]", "result": "Active"}, {"measurement": "IC50", "setting": "[22]", "result": 0.4, "unit": "µM"}, {"measurement": "Activity", "setting": "K562 [23]", "result": 29.8, "unit": "%"}, {"measurement": "Activity", "setting": "K562 [24]", "result": 63.4, "unit": "%"}, {"measurement": "Activity", "setting": "DNA", "result": "inactive"}, {"measurement": "Activity", "setting": "K562 [25]", "result": 67.4, "unit": "%"}, {"measurement": "Activity", "setting": "K562 [26]", "result": 27.8, "unit": "%"}, {"measurement": "IC50", "setting": "NCI-H460", "result": 0.4, "unit": "µM"}, {"measurement": "Drug uptake", "setting": "[27]", "result": "Not Active"}, {"measurement": "IC50", "setting": "HL-60", "result": 0.3, "unit": "µM"}, {"measurement": "Activity", "setting": "K562 [28]", "result": 15.9, "unit": "%"}, {"measurement": "Activity", "setting": "K562 [29]", "result": 48.8, "unit": "%"}, {"measurement": "IC50", "setting": "HCT-116 [30]", "result": 0.5, "unit": "µM"}, {"measurement": "Drug uptake", "setting": "[31]", "result": "Active"}, {"measurement": "IC50", "setting": "HCT-116 [32]", "result": 0.5, "unit": "µM"}]}
